Consider 21 compounds from US20140023611A1 (priority 2010, published 2014).

The target of this assay is T1, rat NaP2b (SLC34A2) (Rattus norvegicus, UniProt Q9JJ09).
T1 construct: host or cells: HEK293
T1 sequence (Q9JJ09 1-695): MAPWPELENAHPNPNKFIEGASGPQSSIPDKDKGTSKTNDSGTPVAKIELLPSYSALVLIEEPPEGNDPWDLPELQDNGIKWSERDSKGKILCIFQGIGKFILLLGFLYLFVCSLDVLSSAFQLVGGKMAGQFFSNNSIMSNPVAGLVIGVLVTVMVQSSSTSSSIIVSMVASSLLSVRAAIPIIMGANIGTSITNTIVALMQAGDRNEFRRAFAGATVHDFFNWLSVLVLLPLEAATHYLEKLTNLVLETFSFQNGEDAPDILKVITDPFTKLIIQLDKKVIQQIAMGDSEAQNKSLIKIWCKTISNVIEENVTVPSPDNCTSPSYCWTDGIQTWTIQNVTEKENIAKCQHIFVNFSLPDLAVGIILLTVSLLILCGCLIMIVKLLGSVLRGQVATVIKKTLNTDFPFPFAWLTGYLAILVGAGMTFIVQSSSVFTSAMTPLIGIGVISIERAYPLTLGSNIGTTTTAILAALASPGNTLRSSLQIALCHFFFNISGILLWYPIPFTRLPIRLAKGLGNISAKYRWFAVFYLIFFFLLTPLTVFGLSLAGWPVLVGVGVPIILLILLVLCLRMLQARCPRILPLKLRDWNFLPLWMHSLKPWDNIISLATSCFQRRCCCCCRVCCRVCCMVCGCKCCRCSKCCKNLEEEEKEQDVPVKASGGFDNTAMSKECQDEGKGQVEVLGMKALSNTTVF
Briefly: Inhibition of NaP2b-mediated Pi (33P) uptake in transfected HEK293 cells, rat NaP2b. The class given is cell-based. To be noted: 33P Pi uptake, 0.1 mM phosphate, value given as pIC50 range. The procedure:
HEK293 cells were obtained from the American Type Culture collection and propagated per their instructions. […] The sequence of the human protein was mutated to insert a threonine after residue 37, and to introduce a N39D mutation.
Cells were seeded into 96-well plates at 25,000 cells/well and cultured overnight. Lipofectamine 2000 (Invitrogen) was used to introduce the NaP2b cDNA, and the cells were allowed to approach confluence during a second overnight incubation. […] Each compound was tested at twelve concentrations ranging from 0.1 nM to 30 uM. Assays were run in duplicate.
Cells were lysed by addition of 20 μL 0.1% Tween 80 followed by 100 μL scintillation fluid, and counted using a TopCount (Perkin Elmer).
pIC50 (the negative log of the IC50) values of the test compounds were calculated using GraphPad Prism.

One may read the IC50 as the concentration that inhibits the measured activity by half. Read a low IC50 as inhibition by little substance. For the compound `O=C(O)CCSCc1cccc(C(=O)Nc2ccc(N3CCCCC3)cc2-c2cc(C(=O)NCc3cccc(OC(F)(F)F)c3)ccn2)c1` [Example 1.45], the IC50 was 1 to 7.94 µM.

Take `Cc1cccc(CNC(=O)c2ccnc(-c3cc(N4CCCCC4)ccc3NC(=O)c3cccc(CSCCC(=O)O)c3)c2)c1` [Example 1.46]: the concentration for half-maximal inhibition (IC50) was 1 to 7.94 µM.

`O=C(O)CCSCc1cccc(C(=O)Nc2ccc(N3CCCCC3)cc2-c2cc(C(=O)NCc3ccc(C(F)(F)F)cc3)ccn2)c1` [Example 1.47] had an IC50 of 1 to 7.94 µM.

As for `O=C(O)CCSCc1cccc(C(=O)Nc2ccc(N3CCCCC3)cc2-c2cc(C(=O)NCc3ccccc3C(F)(F)F)ccn2)c1` [Example 1.48], the IC50 is 1 to 7.94 µM.

`Cc1ccc(CNC(=O)c2ccnc(-c3cc(N4CCCCC4)ccc3NC(=O)c3cccc(CSCCC(=O)O)c3)c2)cc1C` [Example 1.49]: the IC50 was 1 to 7.94 µM.

In turn, `Cc1cccc(CNc2cc(-c3cc(N4CCCCC4)ccc3NC(=O)c3cccc(CSCCC(=O)O)c3)ncn2)c1` [Example 3.2, 3-((3-((4-(Piperidin-1-yl)-2-(6-((3-methylbenzyl)amino)pyrimidin-4-yl)phenyl)carbamoyl)benzyl)thio)propanoic acid] had an IC50 of 10 to 31.6 µM.

`O=C(O)CCSCc1cccc(C(=O)Nc2ccc(N3CCCCC3)cc2-c2cc(NCCc3cccc(C(F)(F)F)c3)ncn2)c1` [Example 3.3, 3-((3-((4-(Piperidin-1-yl)-2-(6-((3-(trifluoromethyl)phenethyl)amino)pyrimidin-4-yl)phenyl)carbamoyl)benzyl)thio)propanoic acid] showed an IC50 of 10 to 31.6 µM.

`Cc1ccc(CNc2cc(-c3cc(N4CCCCC4)ccc3NC(=O)c3cccc(CSCCC(=O)O)c3)ncn2)cc1C` [Example 3.4, 3-((3-((2-(6-((3,4-Dimethylbenzyl)amino)pyrimidin-4-yl)-4-(piperidin-1-yl)phenyl)carbamoyl)benzyl)thio)propanoic acid] gave a concentration for half-maximal inhibition (IC50) of 10 to 31.6 µM.

For `O=C(O)CCSCc1cccc(C(=O)Nc2ccc(N3CCCCC3)cc2-c2cc(NCc3ccc(Cl)c(C(F)(F)F)c3)ncn2)c1` [Example 3.5, 3-((3-((2-(6-((4-Chloro-3-(trifluoromethyl)benzyl)amino)pyrimidin-4-yl)-4-(piperidin-1-yl)phenyl)carbamoyl)benzyl)thio)propanoic acid], the 50% inhibitory concentration (IC50) was 1 to 7.94 µM.

With `O=C(O)CCSCc1cccc(C(=O)Nc2ccc(N3CCCCC3)cc2-c2cc(OCc3cccc(C(F)(F)F)c3)ncn2)c1` [Example 3.8, 3-((3-((4-(Piperidin-1-yl)-2-(6-((3-(trifluoromethyl)benzyl)oxy)pyrimidin-4-yl)phenyl)carbamoyl)benzyl)thio)propanoic acid], the half-inhibitory concentration (IC50) was 10 to 31.6 µM.

With `O=C(O)CCSCc1cccc(C(=O)Nc2ccc(N3CCCCC3)cc2-c2cc(Oc3cccc(C(F)(F)F)c3)ncn2)c1` [Example 3.9, 3-((3-((4-(Piperidin-1-yl)-2-(6-(3-(trifluoromethyl)phenoxy)pyrimidin-4-yl)phenyl)carbamoyl)benzyl)thio)propanoic acid], the IC50 was 10 to 31.6 µM.

In turn, `CCN(CC)CCN(C)C(=O)c1cccc(C(=O)Nc2ccc(N3CCCCC3)cc2-c2cc(C(=O)NCc3cccc(C(F)(F)F)c3)ccn2)c1` [Example 4.1, N1-(2-(Diethylamino)ethyl)-N1-methyl-N3-(4-(piperidin-1-yl)-2-(4-((3-(trifluoromethyl)benzyl)carbamoyl)pyridin-2-yl)phenyl)isophthalamide] had an IC50 of 10 to 31.6 µM.

With `COCCNC(=O)CCN(C)C(=O)c1cccc(C(=O)Nc2ccc(N3CCCCC3)cc2-c2cc(C(=O)NCc3cccc(C(F)(F)F)c3)ccn2)c1` [Example 4.2, N1-(2-(4-((3-(Trifluoromethyl)benzyl)carbamoyl)pyridin-2-yl)-4-(piperidin-1-yl)phenyl)-N3-(3-(2-methoxyethylamino)-3-oxopropyl)-N3-methylisophthalamide], the concentration for half-maximal inhibition (IC50) was 1 to 7.94 µM.

`CN(CCOCCO)C(=O)c1cccc(C(=O)Nc2ccc(N3CCCCC3)cc2-c2cc(C(=O)NCc3cccc(C(F)(F)F)c3)ccn2)c1` [Example 4.3, N1-(2-(2-Hydroxyethoxy)ethyl)-N1-methyl-N3-(4-(piperidin-1-yl)-2-(4-((3-(trifluoromethyl)benzyl)carbamoyl)pyridin-2-yl)phenyl)isophthalamide] gave an IC50 of 1 to 7.94 µM.

`CN(CCN1CCN(C(=O)OC(C)(C)C)CC1)C(=O)c1cccc(C(=O)Nc2ccc(N3CCCCC3)cc2-c2cc(C(=O)NCc3cccc(C(F)(F)F)c3)ccn2)c1` [Example 4.5, Tert-butyl 4-(2-(N-methyl-3-((4-(piperidin-1-yl)-2-(4-((3-(trifluoromethyl)benzyl)carbamoyl)pyridin-2-yl)phenyl)carbamoyl)benzamido)ethyl)piperazine-1-carboxylate]: the IC50 was 1 to 7.94 µM.

With `CC(=O)N1CCN(C(=O)c2cccc(C(=O)Nc3ccc(N4CCCCC4)cc3-c3cc(C(=O)NCc4cccc(C(F)(F)F)c4)ccn3)c2)CC1` [Example 4.6, 2-(2-(3-(4-Acetylpiperazine-1-carbonyl)benzamido)-5-(piperidin-1-yl)phenyl)-N-(3-(trifluoromethyl)benzyl)isonicotinamide], the IC50 was 10 to 31.6 µM.

As for `CC(=O)NC1CCN(C(=O)c2cccc(C(=O)Nc3ccc(N4CCCCC4)cc3-c3cc(C(=O)NCc4cccc(C(F)(F)F)c4)ccn3)c2)CC1` [Example 4.7, 2-(2-(3-(4-Acetamidopiperidine-1-carbonyl)benzamido)-5-(piperidin-1-yl)phenyl)-N-(3-(trifluoromethyl)benzyl)isonicotinamide], the concentration for half-maximal inhibition (IC50) was 10 to 31.6 µM.

`CCN(CCN1CCOCC1)C(=O)c1cccc(C(=O)Nc2ccc(N3CCCCC3)cc2-c2cc(C(=O)NCc3cccc(C(F)(F)F)c3)ccn2)c1` [Example 4.8, N1-Ethyl-N1-(2-morpholinoethyl)-N3-(4-(piperidin-1-yl)-2-(4-((3-(trifluoromethyl)benzyl)carbamoyl)pyridin-2-yl)phenyl)isophthalamide] showed an IC50 of 1 to 7.94 µM.

With `CC(=O)N[C@H]1CCN(C(=O)c2cccc(C(=O)Nc3ccc(N4CCCCC4)cc3-c3cc(C(=O)NCc4cccc(C(F)(F)F)c4)ccn3)c2)C1` [Example 4.9, (S)-2-(2-(3-(3-Acetamidopyrrolidine-1-carbonyl)benzamido)-5-(piperidin-1-yl)phenyl)-N-(3-(trifluoromethyl)benzyl)isonicotinamide], the IC50 was 10 to 31.6 µM.

Consider `O=C(NCc1cccc(C(F)(F)F)c1)c1ccnc(-c2cc(N3CCCCC3)ccc2NC(=O)c2cccc(C(=O)N(CCN3CCOCC3)C3CC3)c2)c1` [Example 4.11, N1-Cyclopropyl-N1-(2-morpholinoethyl)-N3-(4-(piperidin-1-yl)-2-(4-((3-(trifluoromethyl)benzyl)carbamoyl)pyridin-2-yl)phenyl)isophthalamide], for which the IC50 is 1 to 7.94 µM.

`O=C(NCc1cccc(C(F)(F)F)c1)c1ccnc(-c2cc(N3CCCCC3)ccc2NC(=O)c2cccc(C(=O)N(CCN3CCOCC3)Cc3ccccc3)c2)c1` [Example 4.12, N1-Benzyl-N1-(2-morpholinoethyl)-N3-(4-(piperidin-1-yl)-2-(4-((3-(trifluoromethyl)benzyl)carbamoyl)pyridin-2-yl)phenyl)isophthalamide] had an IC50 of 1 to 7.94 µM.
